{"source": "patent US20040018500A1", "about": "“Methods and systems for analyzing complex biological systems” (priority 2001, published 2004)", "test_system": "Saccharomyces cerevisiae wild type strain BY4743", "assay": "AF1 metabolite analysis (GC-MS, LC-MS) of yeast treated with antifungal drugs", "type": "cell-based", "data": [{"smiles": "C[C@@H]1[C@H](O)[C@@H](C)/C=C/C=C/C=C/C=C/C=C/C=C/C=C/[C@H](O[C@@H]2O[C@H](C)[C@@H](O)[C@H](N)[C@@H]2O)C[C@@H]2O[C@](O)(C[C@@H](O)C[C@@H](O)[C@H](O)CC[C@@H](O)C[C@@H](O)CC(=O)O[C@H]1C)C[C@H](O)[C@H]2C(=O)O", "note": "[Amphoteracin B]", "values": [{"measurement": "Fold Change of kinetin", "setting": "nLC", "value": 0}, {"measurement": "Fold Change of lactic acid", "setting": "nLC", "value": "−0.02583"}, {"measurement": "Fold Change of lauric acid", "setting": "nLC", "value": 0.1225}, {"measurement": "Fold Change of leucine/isoleucine/", "setting": "nLC", "value": 0.1319}, {"measurement": "Fold Change of luteolin", "setting": "nLC", "value": 0}, {"measurement": "Fold Change of malic acid", "setting": "nLC", "value": 0.6212}, {"measurement": "Fold Change of malonic acid", "setting": "nLC", "value": 0}, {"measurement": "Fold Change of menthol*", "setting": "nLC", "value": "−0.07013"}, {"measurement": "Fold Change of methionine", "setting": "nLC", "value": 0}, {"measurement": "Fold Change of nopaline", "setting": "nLC", "value": 0.3342}, {"measurement": "Fold Change of oleic acid", "setting": "nLC", "value": 0.689}, {"measurement": "Fold Change of ornithine", "setting": "nLC", "value": 2.534}, {"measurement": "Fold Change of orotic acid", "setting": "nLC", "value": 8380}, {"measurement": "Fold Change of palmitic acid", "setting": "nLC", "value": 0.3979}, {"measurement": "Fold Change of phenylalanine", "setting": "nLC", "value": "−0.1906"}, {"measurement": "Fold Change of phenylpyruvic acid", "setting": "nLC", "value": 0}, {"measurement": "Fold Change of phosphoenolpyruvate", "setting": "nLC", "value": 0}, {"measurement": "Fold Change of pinitol", "setting": "nLC", "value": 0}, {"measurement": "Fold Change of pipecolic acid", "setting": "nLC", "value": 0.08112}, {"measurement": "Fold Change of porphobilinogen", "setting": "nLC", "value": 0}, {"measurement": "Fold Change of proline", "setting": "nLC", "value": 0.4603}, {"measurement": "Fold Change of pyridoxine", "setting": "nLC", "value": "−0.1294"}, {"measurement": "Fold Change of retinoic acid", "setting": "nLC", "value": 0}, {"measurement": "Fold Change of salicylic/HObenzoic", "setting": "nLC", "value": 0}, {"measurement": "Fold Change of selenoOLmethionine", "setting": "nLC", "value": 0.8515}, {"measurement": "Fold Change of serine", "setting": "nLC", "value": 0.1091}, {"measurement": "Fold Change of shikimic acid", "setting": "nLC", "value": 0}, {"measurement": "Fold Change of sinapinic acid", "setting": "nLC", "value": 0}, {"measurement": "Fold Change of sorbitol/mannitol", "setting": "nLC", "value": 0.2162}, {"measurement": "Fold Change of succinic", "setting": "nLC", "value": 0.8663}, {"measurement": "Fold Change of sucrose", "setting": "nLC", "value": 0.4493}, {"measurement": "Fold Change of sugar-phosphate", "setting": "nLC", "value": "−0.1067"}, {"measurement": "Fold Change of tetradecanoic acid", "setting": "nLC", "value": "−0.07723"}, {"measurement": "Fold Change of threonine/homoserin", "setting": "nLC", "value": 0.1267}, {"measurement": "Fold Change of thymine", "setting": "nLC", "value": 0}, {"measurement": "Fold Change of tryptophan", "setting": "nLC", "value": 1.142}, {"measurement": "Fold Change of tyrosine", "setting": "nLC", "value": 0.0982}, {"measurement": "Fold Change of uracil", "setting": "nLC", "value": 1.511}, {"measurement": "Fold Change of uridine", "setting": "nLC", "value": 0.1126}, {"measurement": "Fold Change of urocanic acid", "setting": "nLC", "value": 0}, {"measurement": "Fold Change of valine", "setting": "nLC", "value": 0.1624}, {"measurement": "Fold Change of xanthosineDiH2O", "setting": "nLC", "value": 0}, {"measurement": "Fold Change of zeatin", "setting": "nLC", "value": 0}, {"measurement": "Fold Change of 4-aminobenzoic acid", "setting": "pLC", "value": 0}, {"measurement": "Fold Change of 4-methylcatechol", "setting": "pLC", "value": 0}, {"measurement": "Fold Change of 4ambutyrate/dimglyc", "setting": "pLC", "value": 0.01279}, {"measurement": "Fold Change of 5hydroxyLtryptophan", "setting": "pLC", "value": 0}, {"measurement": "Fold Change of 6benzylaminopurine", "setting": "pLC", "value": 0}, {"measurement": "Fold Change of DL-aminoadipic acid", "setting": "pLC", "value": 0.4703}, {"measurement": "Fold Change of NacetylDglucosamine", "setting": "pLC", "value": 0}, {"measurement": "Fold Change of NacetylLglutamate", "setting": "pLC", "value": 0}, {"measurement": "Fold Change of NacetylLornithine", "setting": "pLC", "value": 1.319}, {"measurement": "Fold Change of adenine", "setting": "pLC", "value": 0.1153}, {"measurement": "Fold Change of alanine/sarcosine", "setting": "pLC", "value": 0.2602}, {"measurement": "Fold Change of allantoic acid", "setting": "pLC", "value": 0}, {"measurement": "Fold Change of anthranilic acid", "setting": "pLC", "value": 0}, {"measurement": "Fold Change of arginine", "setting": "pLC", "value": 0.4662}, {"measurement": "Fold Change of argininosuccinate", "setting": "pLC", "value": 0}, {"measurement": "Fold Change of asparagine", "setting": "pLC", "value": 0.6344}, {"measurement": "Fold Change of aspartic acid", "setting": "pLC", "value": 0.3594}, {"measurement": "Fold Change of biotin", "setting": "pLC", "value": 0}, {"measurement": "Fold Change of caffeine", "setting": "pLC", "value": 0}, {"measurement": "Fold Change of citric acid TME", "setting": "pLC", "value": 0}, {"measurement": "Fold Change of citrulline", "setting": "pLC", "value": 1.798}, {"measurement": "Fold Change of cytidine", "setting": "pLC", "value": 0}, {"measurement": "Fold Change of cytosine", "setting": "pLC", "value": 0}, {"measurement": "Fold Change of diaminopimelic acid", "setting": "pLC", "value": 0}, {"measurement": "Fold Change of dihydrofolic acid", "setting": "pLC", "value": 0}, {"measurement": "Fold Change of dipicolinic acid", "setting": "pLC", "value": 0}, {"measurement": "Fold Change of folic acid", "setting": "pLC", "value": 0}, {"measurement": "Fold Change of glucosamine", "setting": "pLC", "value": 0}, {"measurement": "Fold Change of glucosamine6PO4", "setting": "pLC", "value": 0}, {"measurement": "Fold Change of glutamate", "setting": "pLC", "value": 0.4341}, {"measurement": "Fold Change of glutathione", "setting": "pLC", "value": "−0.03348"}, {"measurement": "Fold Change of histidine", "setting": "pLC", "value": 0}, {"measurement": "Fold Change of hydrocortisone", "setting": "pLC", "value": 0}, {"measurement": "Fold Change of hypoxanthine", "setting": "pLC", "value": 0.2057}, {"measurement": "Fold Change of itaconic acid dimes", "setting": "pLC", "value": 0}, {"measurement": "Fold Change of kinetin", "setting": "pLC", "value": 0}, {"measurement": "Fold Change of leucine/isoleucine/", "setting": "pLC", "value": 0.2746}, {"measurement": "Fold Change of luteolin", "setting": "pLC", "value": 0}, {"measurement": "Fold Change of mannitol", "setting": "pLC", "value": 0.4543}, {"measurement": "Fold Change of methionine", "setting": "pLC", "value": 0.3299}, {"measurement": "Fold Change of mevalonic lactone", "setting": "pLC", "value": "−0.4606"}, {"measurement": "Fold Change of niacinamide", "setting": "pLC", "value": 0}, {"measurement": "Fold Change of nicotinic acid", "setting": "pLC", "value": "−0.9989"}, {"measurement": "Fold Change of nopaline", "setting": "pLC", "value": 0}, {"measurement": "Fold Change of ornithine", "setting": "pLC", "value": 0.5049}, {"measurement": "Fold Change of phenylalanine", "setting": "pLC", "value": 0.4036}, {"measurement": "Fold Change of phosphoenolpyruvate", "setting": "pLC", "value": 0}, {"measurement": "Fold Change of pipecolic acid", "setting": "pLC", "value": 0.5237}, {"measurement": "Fold Change of progesterone", "setting": "pLC", "value": 0}, {"measurement": "Fold Change of proline", "setting": "pLC", "value": 0.6707}, {"measurement": "Fold Change of pyridoxine", "setting": "pLC", "value": "−0.1684"}, {"measurement": "Fold Change of selenoDLmethionine", "setting": "pLC", "value": 1.178}, {"measurement": "Fold Change of sugar-phosphate", "setting": "pLC", "value": 0}, {"measurement": "Fold Change of thiamine", "setting": "pLC", "value": 0}, {"measurement": "Fold Change of threonine/homoserin", "setting": "pLC", "value": 0.3145}, {"measurement": "Fold Change of thymine", "setting": "pLC", "value": 0}, {"measurement": "Fold Change of tryptophan", "setting": "pLC", "value": 0}, {"measurement": "Fold Change of uric acid", "setting": "pLC", "value": 308}, {"measurement": "Fold Change of urocanic acid", "setting": "pLC", "value": 0}, {"measurement": "Fold Change of xanthosine(diH2O)", "setting": "pLC", "value": 0}, {"measurement": "Fold Change of zeatin", "setting": "pLC", "value": 0}]}]}
